Patent US12679843B2, “Pyrrolopyrimidine amines as complement inhibitors” (BioCryst Pharmaceuticals, Inc., priority 2020, dated 2026)

Target: Factor D (Homo sapiens, UniProt P00746)
Test: Factor D esterolytic assay (Z-Lys-SBzl thioester substrate, DTNB, 405 nm)
Format: biochemical
Details: substrate Z-Lys-SBzl 1.29 mM, 100 mM HEPES, 500 mM NaCl, pH 7.5, 10% DMSO, tested a minimum of three times
Procedure, shortened: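 Human Factor D hydrolysis of Z-Lys-SBzl (1.29 mM) monitored at 405 nm via DTNB thiol detection for 600 s, 690 nm background subtracted. Buffer 100 mM HEPES, 500 mM NaCl, pH 7.5, 10% DMSO; substrate added immediately or after room-temperature preincubation. IC50 from percent inhibition of rate, at least three tests.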

Sequence of Factor D (P00746 26-253): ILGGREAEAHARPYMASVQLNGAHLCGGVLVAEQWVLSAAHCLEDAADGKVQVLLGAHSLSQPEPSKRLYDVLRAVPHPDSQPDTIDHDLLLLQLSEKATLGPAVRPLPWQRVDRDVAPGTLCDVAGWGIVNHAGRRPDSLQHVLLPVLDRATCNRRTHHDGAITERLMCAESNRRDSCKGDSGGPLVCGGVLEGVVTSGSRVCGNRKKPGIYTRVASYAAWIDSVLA

| Compound | IC50 |
| --- | --- |
| Cc1ccc(Br)nc1NC(=O)[C@@H]1C[C@@H](F)CN1C(=O)Cn1cnc2c(N)ncnc21 [Compound 68a, (2S,4R)-1-(2-(6-amino-9H-purin-9-yl)acetyl)-N-(6-bromo-3-methylpyridin-2-yl)-4-fluoropyrrolidine-2-carboxamide] | 100 to 1000 nM |
| Cc1cc(C(F)(F)F)nc2c3c(N)ncnc3n(CC(=O)N3[C@@H]4C[C@@H]4C[C@H]3C(=O)Nc3cccc(Br)n3)c12 [Compound 362f, (1R,3S,5R)-2-(2-(4-amino-8-methyl-6-(trifluoromethyl)-9H-pyrido[2′,3′:4,5]pyrrolo[2,3-d]pyrimidin-9-yl)acetyl)-N-(6-bromopyridin-2-yl)-2-azabicyclo[3.1.0]hexane-3-carboxamide] | < 100 nM |
| Nc1ccnc2c1ccn2CC(=O)N1C[C@H](F)C[C@H]1C(=O)NCc1cccc(Cl)c1F [Compound 131e, (2S,4R)-1-(2-(4-amino-1H-pyrrolo[2,3-b]pyridin-1-yl)acetyl)-N-(3-chloro-2-fluorobenzyl)-4-fluoropyrrolidine-2-carboxamide] | 100 to 1000 nM |
| Cc1cc(C(F)(F)F)cc2c3c(N)ncnc3n(CC(=O)N3[C@H](C(=O)Nc4cncc(Cl)n4)C[C@@]4(C)C[C@@H]34)c12 [Compound 327c, (1R,3S,5R)-2-(2-(4-amino-8-methyl-6-(trifluoromethyl)-9H-pyrimido[4,5-b]indol-9-yl)acetyl)-N-(6-chloropyrazin-2-yl)-5-methyl-2-azabicyclo[3.1.0]hexane-3-carboxamide] | < 100 nM |
| C[C@@]12C[C@@H](C(=O)Nc3cccc(Br)n3)N(C(=O)Cn3c4ccc(-c5ccncc5)nc4c4c(N)ncnc43)[C@@H]1C2 [Compound 373a, (1R,3S,5R)-2-(2-(4-amino-6-(pyridin-4-yl)-9H-pyrido[2′,3′:4,5]pyrrolo[2,3-d]pyrimidin-9-yl)acetyl)-N-(6-bromopyridin-2-yl)-5-methyl-2-azabicyclo[3.1.0]hexane-3-carboxamide] | 100 to 1000 nM |
| Nc1ncnc2c1cc1n2C(C(=O)N2[C@@H](C(=O)Nc3cccc(Br)n3)C[C@@H]3C[C@@H]32)Oc2ccccc2-1 (single isomer, unassigned) [Compound 293a] | 100 to 1000 nM |
| Nc1ncnc2c1c1cc(C(F)(F)F)ccc1n2CC(=O)N1C(=O)OC[C@H]1C(=O)NCc1cccc(Cl)c1F [Compound 251f, (S)-3-(2-(4-amino-6-(trifluoromethyl)-9H-pyrimido[4,5-b]indol-9-yl)acetyl)-N-(3-chloro-2-fluorobenzyl)-2-oxooxazolidine-4-carboxamide] | 100 to 1000 nM |
| Cc1cccc2c3c(N)ncnc3n(CC(=O)N3[C@H](C(=O)Nc4cccc(Br)n4)C[C@@]4(C)C[C@@H]34)c12 [Compound 55a, (1R,3S,5R)-2-(2-(4-amino-8-methyl-9H-pyrimido[4,5-b]indol-9-yl)acetyl)-N-(6-bromopyridin-2-yl)-5-methyl-2-azabicyclo[3.1.0]hexane-3-carboxamide] | < 100 nM |
| Nc1ncnc2c1ncn2CC(=O)N1CCC[C@H]1C(=O)NCc1cccc(Cl)c1F [Compound 119a, (S)-1-(2-(6-amino-9H-purin-9-yl)acetyl)-N-(3-chloro-2-fluorobenzyl)pyrrolidine-2-carboxamide] | 100 to 1000 nM |
| COc1cccc(-c2cc(C)c3c(c2)c2c(N)ncnc2n3CC(=O)N2[C@H](C(=O)Nc3cccc(Br)n3)C[C@@]3(C)C[C@@H]23)c1 [Compound 342a, (1R,3S,5R)-2-(2-(4-amino-6-(3-methoxyphenyl)-8-methyl-9H-pyrimido[4,5-b]indol-9-yl)acetyl)-N-(6-bromopyridin-2-yl)-5-methyl-2-azabicyclo[3.1.0]hexane-3-carboxamide] | < 100 nM |
| Cc1cc(C(F)(F)F)cc2c3c(N)ncnc3n(CC(=O)N3C[C@H](F)C[C@H]3C(=O)Nc3cccc(Cl)n3)c12 [Compound 300a, (2S,4R)-1-(2-(4-amino-8-methyl-6-(trifluoromethyl)-9H-pyrimido[4,5-b]indol-9-yl)acetyl)-N-(6-chloropyridin-2-yl)-4-fluoropyrrolidine-2-carboxamide] | < 100 nM |
| Cc1cccc2c1c1c(N)ncnc1n2CC(=O)N1[C@H](C(=O)Nc2cccc(Br)n2)C[C@@]2(C)C[C@@H]12 [Compound 176a, (1R,3S,5R)-2-(2-(4-amino-5-methyl-9H-pyrimido[4,5-b]indol-9-yl)acetyl)-N-(6-bromopyridin-2-yl)-5-methyl-2-azabicyclo[3.1.0]hexane-3-carboxamide] | 100 to 1000 nM |
| C[C@H](NC(=O)[C@@H]1C[C@H]2C[C@H]2N1C(=O)Cn1ccc2c(N)ncnc21)c1cccc(Cl)c1F [Compound 86b, (1R,3S,5R)-2-(2-(4-amino-7H-pyrrolo[2,3-d]pyrimidin-7-yl)acetyl)-N—((S)-1-(3-chloro-2-fluorophenyl)ethyl)-2-azabicyclo[3.1.0]hexane-3-carboxamide] | 100 to 1000 nM |
| Cc1cc(C2CC2)cc2c3c(N)ncnc3n(CC(=O)N3[C@H](C(=O)Nc4cccc(Br)n4)C[C@@]4(C)C[C@@H]34)c12 [Compound 361a, (1R,3S,5R)-2-(2-(4-amino-6-cyclopropyl-8-methyl-9H-pyrimido[4,5-b]indol-9-yl)acetyl)-N-(6-bromopyridin-2-yl)-5-methyl-2-azabicyclo[3.1.0]hexane-3-carboxamide] | < 100 nM |
| O=C1NCc2cnc3c(ccn3CC(=O)N3C[C@H](F)C[C@H]3C(=O)NCc3cccc(Cl)c3F)c2N1 [Compound 235a, (2S,4R)—N-(3-chloro-2-fluorobenzyl)-4-fluoro-1-(2-(2-oxo-3,4-dihydro-1H-pyrrolo[3′,2′:5,6]pyrido[4,3-d]pyrimidin-7 (2H)-yl)acetyl)pyrrolidine-2-carboxamide] | > 1000 nM |
| Nc1cccc2c1ccn2CC(=O)N1[C@@H]2C[C@@H]2C[C@H]1C(=O)Nc1cccc(Br)n1 [Compound 85b, (1R,3S,5R)-2-(2-(4-amino-1H-indol-1-yl)acetyl)-N-(6-bromopyridin-2-yl)-2-azabicyclo[3.1.0]hexane-3-carboxamide] | > 1000 nM |
| C[C@@]12C[C@@H](C(=O)Nc3cccc(Br)n3)N(C(=O)Cn3c4ccc(C(F)(F)F)nc4c4c(N)ncnc43)[C@@H]1C2 [Compound 231g, (1R,3S,5R)-2-(2-(4-amino-6-(trifluoromethyl)-9H-pyrido[2′,3′:4,5]pyrrolo[2,3-d]pyrimidin-9-yl)acetyl)-N-(6-bromopyridin-2-yl)-5-methyl-2-azabicyclo[3.1.0]hexane-3-carboxamide] | < 100 nM |

Other lines, results leading:

| IC50 | Compound |
| --- | --- |
| < 100 nM | CC(C)(C)OC(=O)Nc1ccc2c3c(N)ncnc3n(CC(=O)N3[C@@H]4C[C@@H]4C[C@H]3C(=O)Nc3cccc(Br)n3)c2c1 [Compound 17f, tert-butyl (4-amino-9-(2-((1R,3S,5R)-3-((6-bromopyridin-2-yl)carbamoyl)-2-azabicyclo[3.1.0]hexan-2-yl)-2-oxoethyl)-9H-pyrimido[4,5-b]indol-7-yl)carbamate] |
| < 100 nM | COc1cc2c(cc1Br)c1c(N)ncnc1n2CC(=O)N1[C@@H]2C[C@@H]2C[C@H]1C(=O)Nc1cccc(Br)n1 [Compound 374g, (1R,3S,5R)-2-(2-(4-amino-6-bromo-7-methoxy-9H-pyrimido[4,5-b]indol-9-yl)acetyl)-N-(6-bromopyridin-2-yl)-2-azabicyclo[3.1.0]hexane-3-carboxamide] |
| < 100 nM | CNC(=O)c1ccc2c(c1)c1c(N)ncnc1n2CC(=O)N1[C@@H]2C[C@@H]2C[C@H]1C(=O)Nc1cccc(Br)n1 [Compound 204a, 4-amino-9-(2-((1R,3S,5R)-3-((6-bromopyridin-2-yl)carbamoyl)-2-azabicyclo[3.1.0]hexan-2-yl)-2-oxoethyl)-N-methyl-9H-pyrimido[4,5-b]indole-6-carboxamide] |
| < 100 nM | Nc1ncnc2c1c1nc(-c3ccncc3)ccc1n2CC(=O)N1[C@@H]2C[C@@H]2C[C@H]1C(=O)Nc1cccc(Br)n1 [Compound 307c, (1R,3S,5R)-2-(2-(4-amino-6-(pyridin-4-yl)-9H-pyrido[2′,3′:4,5]pyrrolo[2,3-d]pyrimidin-9-yl)acetyl)-N-(6-bromopyridin-2-yl)-2-azabicyclo[3.1.0]hexane-3-carboxamide] |
| < 100 nM | C[C@@]12C[C@@H](C(=O)Nc3cccc(Br)n3)N(C(=O)Cn3c4ccc([N+](=O)[O-])cc4c4c(N)ncnc43)[C@@H]1C2 [Compound 202a, (1R,3S,5R)-2-(2-(4-amino-6-nitro-9H-pyrimido[4,5-b]indol-9-yl)acetyl)-N-(6-bromopyridin-2-yl)-5-methyl-2-azabicyclo[3.1.0]hexane-3-carboxamide] |
| < 100 nM | COc1cc2c3c(N)ncnc3n(CC(=O)N3[C@@H]4C[C@@H]4C[C@H]3C(=O)Nc3cccc(Br)n3)c2cc1OC [Compound 276g, (1R,3S,5R)-2-(2-(4-amino-6,7-dimethoxy-9H-pyrimido[4,5-b]indol-9-yl)acetyl)-N-(6-bromopyridin-2-yl)-2-azabicyclo[3.1.0]hexane-3-carboxamide] |
| < 100 nM | COC(=O)c1ccc2c3c(N)ncnc3n(CC(=O)N3[C@H](C(=O)Nc4cccc(Br)n4)C[C@@]4(C)C[C@@H]34)c2c1 [Compound 42a, methyl 4-amino-9-(2-((1R,3S,5R)-3-((6-bromopyridin-2-yl)carbamoyl)-5-methyl-2-azabicyclo[3.1.0]hexan-2-yl)-2-oxoethyl)-9H-pyrimido[4,5-b]indole-7-carboxylate] |
| < 100 nM | Nc1ncnc2c1c1nc(C(F)(F)F)ccc1n2CC(=O)N1[C@@H]2C[C@@H]2C[C@H]1C(=O)Nc1cccc(Br)n1 [Compound 234a, (1R,3S,5R)-2-(2-(4-amino-6-(trifluoromethyl)-9H-pyrido[2′,3′:4,5]pyrrolo[2,3-d]pyrimidin-9-yl)acetyl)-N-(6-bromopyridin-2-yl)-2-azabicyclo[3.1.0]hexane-3-carboxamide] |
| > 1000 nM | Nc1ncnc2c1c1c(C(=O)O)cccc1n2CC(=O)N1[C@@H]2C[C@@H]2C[C@H]1C(=O)Nc1cccc(Br)n1 [Compound 224b, 4-amino-9-(2-((1R,3S,5R)-3-((6-bromopyridin-2-yl)carbamoyl)-2-azabicyclo[3.1.0]hexan-2-yl)-2-oxoethyl)-9H-pyrimido[4,5-b]indole-5-carboxylic acid] |
